In patent US9469645B2, “Compounds and compositions for the treatment of parasitic diseases” (Novartis AG, priority 2009, dated 2016):

Legend:
3D7 P. falciparum strain = assay: parasite proliferation assay in infected red blood cells (SYBR Green I); type: cell-based, Plasmodium falciparum; details: Plasmodium falciparum, 3D7, Erythrocyte, 3D7 strain; read-out: EC50 3D7 strain
In short: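 P. falciparum 3D7 grown in O+ human erythrocytes to 3–8% parasitemia and exposed to compounds. Proliferation read as the increase in parasite DNA. Detection used SYBR Green I in saponin/triton-X/EDTA lysis buffer, with overnight lysis at room temperature.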

W2 strain = assay: parasite proliferation assay in infected red blood cells (SYBR Green I), W2 strain; type: cell-based; details: Erythrocyte
Source text: Compounds of the invention can be assayed to measure their capacity to inhibit proliferation of parasitemia in infected red blood cells. The proliferation is quantified by the addition of SYBR Green I (INVITROGEN)® dye which has a high affinity for double stranded DNA.

SMILES | EC50 (3D7 P. falciparum strain) | EC50 (W2 strain)
CN[C@@H](Cc1ccccc1)C(=O)N1CCn2c(nc(-c3ccc(F)cc3)c2Nc2ccc(C)cc2)C1 [Compound 149] | 0.02 µM | 0.011 µM
Cc1ccc(Nc2c(-c3ccc(F)cc3)nc3n2CCN(C(=O)[C@H](CCC(=O)OCc2ccccc2)NC(=O)OC(C)(C)C)C3)cc1 [Compound 150] | 0.96 µM | 0.673 µM
Cc1ccc(Nc2c(-c3ccc(F)cc3)nc3n2CCN(C(=O)[C@H](CC(=O)OCc2ccccc2)NC(=O)OC(C)(C)C)C3)cc1 [Compound 151] | 0.82 µM | 0.386 µM
Cc1ccc(Nc2c(-c3ccc(F)cc3)nc3n2CCN(C(=O)[C@H](CCCCNC(=O)OC(C)(C)C)NC(=O)OCc2ccccc2)C3)cc1 [Compound 152] | 3.87 µM | 0.873 µM
Cc1ccc(Nc2c(-c3ccc(F)cc3)nc3n2CCN(C(=O)CNC2CC2)C3)cc1 [Compound 153] | 0.06 µM | 0.032 µM
CC(=O)NCCCCNCC(=O)N1CCn2c(nc(-c3ccc(F)cc3)c2Nc2ccc(C)cc2)C1 [Compound 154] | 4.27 µM | 3.41 µM
Cc1ccc(Nc2c(-c3ccc(F)cc3)nc3n2CCN(CCN2CCn4c(nc(-c5ccc(F)cc5)c4Nc4ccc(C)cc4)C2)C3)cc1 [Compound 155] | 2.14 µM | 0.491 µM
Cc1ccc(Nc2c(-c3ccc(F)cc3)nc3n2CCN(C(=O)[C@@H](N)CCCCN)C3)cc1 [Compound 156] | 1.83 µM | 0.458 µM
Cc1ccc(Nc2c(-c3ccc(F)cc3)nc3n2CCN(C(=O)[C@@H](N)Cc2ccc(N)cc2)C3)cc1 [Compound 157] | 0.1 µM | 0.097 µM
CCCC(=O)NCCCC[C@H](N)C(=O)N1CCn2c(nc(-c3ccc(F)cc3)c2Nc2ccc(C)cc2)C1 [Compound 158] | 7.54 µM | 4.76 µM
Cc1ccc(Nc2c(-c3ccc(F)cc3)nc3n2CCN(C(=O)[C@@H](N)CCCCNC(=O)CCOCCOCCOCCOCCNC(=O)CCCCC2SCC4NC(=O)NC42)C3)cc1 (some centres unmarked) [Compound 159] | 5.7 µM | 2.91 µM
CC(=O)Nc1ccc(C[C@H](N)C(=O)N2CCn3c(nc(-c4ccc(F)cc4)c3Nc3ccc(C)cc3)C2)cc1 [Compound 160] | 4.32 µM | 2.39 µM
Cc1ccc(Nc2c(-c3ccc(F)cc3)nc3n2CCN(C(=O)CN(CCO)CCO)C3)cc1 [Compound 161] | 0.54 µM | 0.51 µM
Cc1ccc(Nc2c(-c3ccc(F)cc3)nc3n2CCN(C(=O)[C@@H]2CC(=O)N2)C3)cc1 [Compound 162] | 1.78 µM | 1.38 µM
Cc1ccc(Nc2c(-c3ccc(F)cc3)nc3n2CCN(C(=O)[C@@H](N)CO)C3)cc1 [Compound 163] | 0.02 µM | 0.026 µM
Cc1ccc(Nc2c(-c3ccc(F)cc3)nc3n2CCN(C(=O)[C@H](CO)NC(=O)C(F)(F)F)C3)cc1 [Compound 164] | > 9.81 µM | 3.76 µM
Cc1ccc(Nc2c(-c3ccc(F)cc3)nc3n2CCN(C(=O)c2cc(=O)[nH]c(=O)[nH]2)C3)cc1 [Compound 165] | > 10.2 µM | 4.64 µM
Cc1ccc(Nc2c(-c3ccc(F)cc3)nc3n2CCN(C(=O)CNC(N)=O)C3)cc1 [Compound 166] | 2.87 µM | 2.23 µM
Cc1ccc(Nc2c(-c3ccc(F)cc3)nc3n2CCN(C(=O)CNC(=N)N)C3)cc1 [Compound 167] | 0.18 µM | 0.145 µM
Cc1ccc(Nc2c(-c3ccc(F)cc3)nc3n2CCN(C(=O)CNc2ccccc2)C3)cc1 [Compound 168] | 0.01 µM | 0.011 µM

SMILES | EC50 (3D7 P. falciparum strain) | EC50 (W2 strain)
Cc1ccc(Nc2c(-c3ccc(F)cc3)nc3n2CCN(C(=O)[C@@H](N)C(C)(C)C)C3)cc1 [Compound 170] | 0.09 µM | 0.054 µM
Cc1ccc(Nc2c(-c3ccc(F)cc3)nc3n2CCN(C(=O)C[C@@H](N)Cc2ccc(Br)cc2)C3)cc1 [Compound 171] | 0.17 µM | 0.214 µM
Cc1ccc(Nc2c(-c3ccc(F)cc3)nc3n2CCN(C(=O)C[C@@H](N)Cc2cc(F)c(F)cc2F)C3)cc1 [Compound 172] | 0.1 µM | 0.088 µM
Cc1ccc(Nc2c(-c3ccc(F)cc3)nc3n2CCN(C(=O)C(C)c2ccc(Cl)cc2)C3)cc1 (centres unmarked) [Compound 173] | 0.14 µM | 0.133 µM
Cc1ccc(Nc2c(-c3ccc(F)cc3)nc3n2CCN(C(=O)C(C)(C)c2ccc(Cl)cc2)C3)cc1 [Compound 174] | 6.06 µM | 1.48 µM
Cc1ccc(Nc2c(-c3ccc(F)cc3)nc3n2CCN(C(=O)[C@@H](C)c2ccccc2)C3)cc1 [Compound 175] | 0.08 µM | 0.105 µM
Cc1ccc(Nc2c(-c3ccc(F)cc3)nc3n2CCN(C(=O)[C@@H]2Cc4[nH]cnc4CN2)C3)cc1 [Compound 176] | 2.75 µM | 1.79 µM
Cc1ccc(Nc2c(-c3ccc(F)cc3)nc3n2CCN(C(=O)[C@H](Cc2ccccc2)N(C)C)C3)cc1 [Compound 177] | 0.43 µM | 0.43 µM
Cc1ccc(Nc2c(-c3ccc(F)cc3)nc3n2CCN(C(=O)CN2CCC(CCN)CC2)C3)cc1 [Compound 178] | 3.05 µM | 3.32 µM
Cc1ccc(Nc2c(-c3ccc(F)cc3)nc3n2CCN(Cc2ccc(S(C)(=O)=O)cc2)C3)cc1 [Compound 179] | 4.79 µM | 1.07 µM
Cc1ccc(Nc2c(-c3ccc(F)cc3)nc3n2CCN(Cc2ccc(N4CCOCC4)cc2)C3)cc1 [Compound 180] | 0.73 µM | 0.609 µM
CCN(CC)c1ccc(CN2CCn3c(nc(-c4ccc(F)cc4)c3Nc3ccc(C)cc3)C2)cc1 [Compound 182] | 1.37 µM | 1.08 µM
Cc1ccc(Nc2c(-c3ccc(F)cc3)nc3n2CCN(Cc2ccc(OCCCN(C)C)cc2)C3)cc1 [Compound 183] | 1.9 µM | 1.34 µM
Cc1ccc(Nc2c(-c3ccc(F)cc3)nc3n2CCN(Cc2ccc(-c4ccncc4)cc2)C3)cc1 [Compound 184] | 3.65 µM | 0.859 µM
CCC(=O)Nc1ccc(C[C@H](NC(=O)OC(C)(C)C)C(=O)N2CCn3c(nc(-c4ccc(F)cc4)c3Nc3ccc(C)cc3)C2)cc1 [Compound 185] | 0.35 µM | 0.136 µM
CCCNC(=O)C[C@H](NC(=O)OC(C)(C)C)C(=O)N1CCn2c(nc(-c3ccc(F)cc3)c2Nc2ccc(C)cc2)C1 [Compound 186] | 5.63 µM | 2.56 µM
CCC(=O)Nc1ccc(C[C@H](N)C(=O)N2CCn3c(nc(-c4ccc(F)cc4)c3Nc3ccc(C)cc3)C2)cc1 [Compound 187] | 6.68 µM | 3.55 µM
CCCNC(=O)CC[C@H](N)C(=O)N1CCn2c(nc(-c3ccc(F)cc3)c2Nc2ccc(C)cc2)C1 [Compound 188] | 0.79 µM | 1.1 µM
CCCNC(=O)C[C@H](N)C(=O)N1CCn2c(nc(-c3ccc(F)cc3)c2Nc2ccc(C)cc2)C1 [Compound 189] | 0.37 µM | 0.392 µM
Cc1ccc(Nc2c(-c3ccc(F)cc3)nc3n2CCN(C(=O)CC(N)C(F)(F)F)C3)cc1 (centres unmarked) [Compound 190] | 0.94 µM | 1.07 µM

SMILES | EC50 (3D7 P. falciparum strain) | EC50 (W2 strain)
Fc1ccc(Nc2c(-c3cccc(F)c3)nc3n2CCNC3)cc1 [Compound 191] | 0.17 µM | 0.151 µM
Fc1ccc(-c2nc3n(c2Nc2ccc(Cl)c(F)c2)CCNC3)cc1 [Compound 192] | 0.11 µM | 0.095 µM
Cc1ccc(Nc2c(-c3ccc(F)cc3)nc3n2CCN(C(=O)[C@H]2CCC[C@H]2N)C3)cc1 [Compound 193] | 0.09 µM | 0.075 µM
N[C@H](C(=O)N1CCn2c(nc(-c3ccc(F)cc3)c2Nc2ccc(F)cc2)C1)C(F)(F)F [Compound 195] | 0.02 µM | 0.02 µM
N[C@@H](C(=O)N1CCn2c(nc(-c3ccc(F)cc3)c2Nc2ccc(F)cc2)C1)C(F)(F)F [Compound 196] | 0.32 µM | 0.344 µM
CCCC(=O)Nc1ccc(C[C@H](N)C(=O)N2CCn3c(nc(-c4ccc(F)cc4)c3Nc3ccc(C)cc3)C2)cc1 [Compound 197] | 4.16 µM | 1.04 µM
Cc1ccc(Nc2c(-c3ccc(F)cc3)nc3n2CCN(C(=O)[C@H]2CCCO2)C3)cc1 [Compound 199] | 0.24 µM | 0.157 µM
Cc1ccc(Nc2c(-c3ccc(F)cc3)nc3n2CCN(C(=O)C(C)Oc2ccccc2)C3)cc1 (centres unmarked) [Compound 202] | 0.16 µM | 0.102 µM
Cc1ccc(Nc2c(-c3ccc(F)cc3)nc3n2CCN(C(=O)C(C)Oc2cccc(Cl)c2)C3)cc1 (centres unmarked) [Compound 203] | 0.97 µM | 0.369 µM
Cc1ccc(Nc2c(-c3ccc(F)cc3)nc3n2CCN(C(=O)[C@@H](O)C(C)C)C3)cc1 [Compound 204] | 0.01 µM | 0.01 µM
Cc1ccc(Nc2c(-c3ccc(F)cc3)nc3n2CCN(C(=O)Cc2ccncn2)C3)cc1 [Compound 206] | 1.2 µM | 1.17 µM
Fc1cccc(-c2nc3cnccn3c2Nc2ccc(Cl)c(F)c2)c1 [Compound 207] | 9.31 µM | 2.42 µM
Cc1ccc(Nc2c(-c3ccc(F)cc3)nc3n2CCN(C(=O)C(Oc2ccccc2C)C(C)C)C3)cc1 (centres unmarked) [Compound 208] | 5.87 µM | 1.06 µM
Cc1ccc(Nc2c(-c3ccc(F)cc3)nc3n2CCN(C(=O)C2CCOCC2)C3)cc1 [Compound 209] | 11.6 µM | 4.36 µM
CCO[C@@H](Cc1ccc(O)cc1)C(=O)N1CCn2c(nc(-c3ccc(F)cc3)c2Nc2ccc(C)cc2)C1 [Compound 210] | 0.04 µM | 0.026 µM
Cc1ccc(Nc2c(-c3ccc(F)cc3)nc3n2CCN(C(=O)CC2CCCO2)C3)cc1 (centres unmarked) [Compound 211] | 0.3 µM | 0.283 µM
Cc1ccc(Nc2c(-c3ccc(F)cc3)nc3n2CCN(C(=O)C2CCOC2)C3)cc1 (centres unmarked) [Compound 212] | 1.95 µM | 1.98 µM
Cc1ccc(Nc2c(-c3ccc(F)cc3)nc3n2CCN(C(=O)[C@@H](N)Cc2ccc(CN)cc2)C3)cc1 [Compound 213] | 3.8 µM | 4.82 µM
